The text below walks through data of patent US9227967B2, “Inhibitor compounds of semicarbazide-sensitive amine oxidases” (Proximagen Limited, priority 2010, dated 2016).

Broadly, the IC50 is the midpoint of a concentration-inhibition curve.

Each structure is given as a SMILES string. Counter-ions that a name gives are not always drawn. A value given as a limit tells only on which side of the number the result lay.

The assay has as its target T1, human SSAO (Homo sapiens, UniProt Q16853).
T1 construct: made in house
T1 sequence (Q16853 29-763 limits assumed): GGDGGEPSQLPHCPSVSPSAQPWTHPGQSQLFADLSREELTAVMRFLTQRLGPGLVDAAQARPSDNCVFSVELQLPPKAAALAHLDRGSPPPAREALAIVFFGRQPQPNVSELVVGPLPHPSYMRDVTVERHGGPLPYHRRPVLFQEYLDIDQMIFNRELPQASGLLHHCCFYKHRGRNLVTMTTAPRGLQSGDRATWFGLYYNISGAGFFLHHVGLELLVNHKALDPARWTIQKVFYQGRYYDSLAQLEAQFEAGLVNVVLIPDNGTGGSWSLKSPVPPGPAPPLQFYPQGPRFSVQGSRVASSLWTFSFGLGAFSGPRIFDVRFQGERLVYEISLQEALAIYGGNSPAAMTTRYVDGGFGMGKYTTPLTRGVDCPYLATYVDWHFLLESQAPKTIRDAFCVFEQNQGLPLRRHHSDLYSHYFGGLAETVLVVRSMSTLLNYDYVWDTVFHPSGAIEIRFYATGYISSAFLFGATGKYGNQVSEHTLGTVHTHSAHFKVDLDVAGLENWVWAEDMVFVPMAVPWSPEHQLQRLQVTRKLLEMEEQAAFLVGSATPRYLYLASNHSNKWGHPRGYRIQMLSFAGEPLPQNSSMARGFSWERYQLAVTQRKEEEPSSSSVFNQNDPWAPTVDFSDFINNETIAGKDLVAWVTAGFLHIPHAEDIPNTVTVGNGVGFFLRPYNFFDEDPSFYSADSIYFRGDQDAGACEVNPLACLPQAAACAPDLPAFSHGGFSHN
The experiment in a line: SSAO enzyme inhibition assay (benzylamine substrate; HRP-coupled hydrogen peroxide detection or 14C-benzaldehyde detection). The following applies: purified recombinantly expressed human SSAO, benzylamine as substrate, r.t.; read-out: SSAO inhibitory activity IC50. It counts as biochemical. On the procedure: All primary assays were performed at r.t. with purified recombinantly expressed human SSAO. Enzyme was prepared essentially as described in Öhman et al. (Protein Expression and Purification 46 (2006) 321-331). In addition, secondary- and selectivity assays were performed using SSAO prepared from various tissues or purified rat recombinant SSAO. The enzyme activity was assayed with benzylamine as substrate by measuring either benzaldehyde production, using ^14C-labeled substrate, or by utilizing the production of hydrogen peroxide in a horseradish peroxidise (HRP) coupled reaction. Briefly, test compounds were dissolved in dimethyl sulfoxide (DMSO) to a concentration of 10 mM. Dose-response measurements were assayed by either creating 1:10 serial dilutions in DMSO to produce a 7 point curve or by making 1:3 serial dilutions in DMSO to produce 11 point curves. The top concentrations were adjusted depending on the potency of the compounds and subsequent dilution in reaction buffer yielded a final DMSO concentration ≦2%.
In a horseradish peroxidise (HRP) coupled reaction, hydrogen peroxide oxidation of 10-acetyl-3,7-dihydroxyphenoxazine produced resorufin, which is a highly fluorescent compound (Zhout and Panchuk-Voloshina. Analytical Biochemistry 253 (1997) 169-174; Amplex® Red Hydrogen Peroxide/peroxidise Assay kit, Invitrogen A22188). Enzyme and compounds in 50 mM sodium phosphate, pH 7.4 were set to pre-incubate in flat-bottomed microtiter plates for approximately 15 minutes before initiating the reaction by addition of a mixture of HRP, benzylamine and Amplex reagent. Benzylamine concentration was fixed at a concentration corresponding to the Michaelis constant, determined using standard procedures. Fluorescence intensity was then measured at several time points during 1-2 hours, exciting at 544 nm n and reading the emission at 590 nm. For the human SSAO assay final concentrations of the reagents in the assay wells were: SSAO enzyme 1 μg/ml, benzylamine 100 μM, Amplex reagent 20 μM, HRP 0.1 U/mL and varying concentrations of test compound. The inhibition was measured as % decrease of the signal compared to a control without inhibitor (only diluted DMSO). The background signal from a sample containing no SSAO enzyme was subtracted from all data points. Data was fitted to a four parameter logistic model and IC50 values were calculated using the GraphPad Prism 4 or XLfit 4 programs.
SSAO activity was assayed using 14C-labeled benzylamine and analysed by measuring radioactive benzaldehyde. In a white 96-well optiplate (Packard), 20 μL of diluted test compound was pre-incubated at r.t. with 20 μL SSAO enzyme for approximately 15 minutes with continuous agitation. All dilutions were made with PBS. The reaction was initiated by adding 20 μL of the benzylamine substrate solution containing [7-14C] Benzylamine hydrochloride (CFA589, GE Healthcare). The plate was incubated for 1 hour as above after which the reaction was stopped by acidification (10 μL 1 M HCl). Then 90 μL Micro Scint-E solution (Perkin-Elmer) was added to each well and the plate was continuously mixed for 15 minutes. Phase separation occurred instantly and activity was read in a Topcount scintillation counter (Perkin-Elmer). In the final reaction well, human recombinant SSAO concentration was 10 μg/ml. In order to optimize sensitivity, the substrate concentration was decreased as compared to the HRP coupled assay in order to get a higher fraction of radioactive product. In the human SSAO assay, benzylamine concentration was 40 μM (0.2 μCi/mL). Data was analysed as above.
For `Clc1ccc(-n2cc(C3CCOCC3)c3ccncc32)cc1` [Compound 101, 1-(4-Chlorophenyl)-3-(oxan-4-yl)-1H-pyrrolo[2,3-c]pyridine], the IC50 was less than 0.1 µM.
As to `OC1CCN(c2nn(-c3ccc(Cl)cc3)c3cnccc23)CC1` [Compound 53, 1-[1-(4-Chlorophenyl)-1H-pyrazolo[3,4-c]pyridin-3-yl]piperidin-4-ol], the IC50 was less than 0.1 µM.
For `Clc1ccc(-n2nc(N3CCN(Cc4cc[nH]n4)CC3)c3ccncc32)cc1` [Compound 75, 1-[1-(4-Chlorophenyl)-1H-pyrazolo[3,4-c]pyridin-3-yl]-4-(1H-pyrazol-3-ylmethyl)piperazine] the value was 0.1 to 0.5 µM; for `Cc1ccc(-n2nc(N3CCC(C(N)=O)CC3)c3ccncc32)cc1` [Compound 54, 1-[1-(4-Methylphenyl)-1H-pyrazolo[3,4-c]pyridin-3-yl]piperidine-4-carboxamide], less than 0.1 µM; for `Clc1ccc(-n2nc(C3CCOCC3)c3ccncc32)cc1` [Compound 80, 1-(4-Chlorophenyl)-3-(oxan-4-yl)-1H-pyrazolo[3,4-c]pyridine], 0.1 to 0.5 µM.
As to `NCCOC(=O)N1CCC(c2cn(-c3ccc(Cl)cc3)c3cnccc23)CC1` [Compound 106, 2-Aminoethyl 4-[1-(4-chlorophenyl)-1H-pyrrolo[2,3-c]pyridin-3-yl]piperidine-1-carboxylate], the IC50 was less than 0.1 µM.
As for `Clc1ccc(-c2cn(C3CCNCC3)c3ccncc23)cc1` [Compound 5, Bis(2,2,2-trifluoroacetic acid); 4-[3-(4-chlorophenyl)-1H-pyrrolo[3,2-c]pyridin-1-yl]piperidine], the IC50 lay within 0.1 to 0.5 µM.
Turning to `Cc1ccc(-n2nc(C3CCOCC3)c3ccncc32)nc1` [Compound 46, 5-Methyl-2-[3-(oxan-4-yl)-1H-pyrazolo[3,4-c]pyridin-1-yl]pyridine], the IC50 was in the range of 0.5 to 2.5 µM.
Regarding `Cc1ccc(-n2nc(N3CCOC(CN)C3)c3ccncc32)cc1` (centres unmarked) [Compound 72, {4-[1-(4-Methylphenyl)-1H-pyrazolo[3,4-c]pyridin-3-yl]morpholin-2-yl}methanamine], the IC50 was in the range of 0.1 to 0.5 µM.
Consider `N#CCCCN1CCC(c2cn(-c3ccc(Cl)cc3)c3cnccc23)CC1` [Compound 22, 4-{4-[1-(4-Chlorophenyl)-1H-pyrrolo[2,3-c]pyridin-3-yl]piperidin-1-yl}butanenitrile hydrochloride], for which the IC50 was in the range of 0.1 to 0.5 µM.
For `C[C@@H]1CN(c2nn(-c3ccc(Cl)cc3)c3cnccc23)C[C@H](C)O1` [Compound 62, (2S,6R)-4-[1-(4-Chlorophenyl)-1H-pyrazolo[3,4-c]pyridin-3-yl]-2,6-dimethylmorpholine], the IC50 was 0.1 to 0.5 µM.
As to `COC1CCN(c2nn(-c3ccc(C)cc3)c3cnccc23)C1` (centres unmarked) [Compound 50, 3-Methoxy-1-[1-(4-methylphenyl)-1H-pyrazolo[3,4-c]pyridin-3-yl]pyrrolidine], the IC50 was less than 0.1 µM.
With `NCCC(=O)N1CCN(c2nn(-c3ccc(Cl)cc3)c3cnccc23)CC1` [Compound 76], the IC50 lay in the range of 0.1 to 0.5 µM.
Consider `Clc1ccc(-c2cn(CC3CCOC3)c3ccncc23)cc1` (centres unmarked) [Compound 1, 3-(4-Chlorophenyl)-1-(oxolan-3-ylmethyl)-1H-pyrrolo[3,2-c]pyridine], for which the IC50 was in the range of 0.5 to 2.5 µM.
Next, `Cc1ccc(-n2nc(N3CCOCC3C(N)=O)c3ccncc32)cc1` (centres unmarked) [Compound 77, 4-[1-(4-Methylphenyl)-1H-pyrazolo[3,4-c]pyridin-3-yl]morpholine-3-carboxamide]: 0.5 to 2.5 µM.
As for `COCCN(C)c1nn(-c2ccc(C)cc2)c2cnccc12` [Compound 69, N-(2-Methoxyethyl)-N-methyl-1-(4-methylphenyl)-1H-pyrazolo[3,4-c]pyridin-3-amine], the IC50 is 0.1 to 0.5 µM.
`Cn1cc(CN2CCC(c3cn(-c4ccc(Cl)cc4)c4cnccc34)CC2)cn1` [Compound 20, 4-[1-(4-Chlorophenyl)-1H-pyrrolo[2,3-c]pyridin-3-yl]-1-[(1-methyl-1H-pyrazol-4-yl)-methyl]piperidine]: the IC50 was 0.1 to 0.5 µM.
On to `Clc1ccc(-n2cc(C3CCNCC3)c3ccncc32)cc1` [Compound 10, 1-(4-Chlorophenyl)-3-piperidin-4-yl-1H-pyrrolo[2,3-c]pyridine trifluoroacetate], for which the IC50 lay in the range of 0.1 to 0.5 µM.
Next, `NCCC(=O)N1CCC(c2nn(-c3ccc(Cl)cc3)c3cnccc23)CC1` [Compound 93, 3-Amino-1-{4-[1-(4-chlorophenyl)-1H-pyrazolo[3,4-c]pyridin-3-yl]piperidin-1-yl}propan-1-one dihydrochloride]: 0.1 to 0.5 µM; `Clc1ccc(-n2nc(C3CCNCC3)c3ccncc32)cc1` [Compound 84, 4-[1-(4-Chlorophenyl)-1H-pyrazolo[3,4-c]pyridin-3-yl]piperidine]: 0.1 to 0.5 µM; `Clc1ccc(-n2nc(C3CCOCC3)c3ncncc32)cc1` [Compound 99, 1-(4-Chlorophenyl)-3-(oxan-4-yl)-1H-pyrazolo[4,3-d]pyrimidine]: 0.5 to 2.5 µM.
Consider `Clc1ccc(-c2cn(C3CCOCC3)c3ccncc23)cc1` [Compound 4, 3-(4-Chlorophenyl)-1-(oxan-4-yl)-1H-pyrrolo[3,2-c]pyridine], for which the IC50 was 0.1 to 0.5 µM.
Consider `Cc1ccc(-n2nc(N3CCCOCC3)c3ccncc32)cc1` [Compound 67, 4-[1-(4-Methylphenyl)-1H-pyrazolo[3,4-c]pyridin-3-yl]-1,4-oxazepane], for which the IC50 is less than 0.1 µM.
`NC1CCN(c2nn(-c3ccc(Cl)cc3)c3cnccc23)CC1` [Compound 71, 1-[1-(4-Chlorophenyl)-1H-pyrazolo[3,4-c]pyridin-3-yl]piperidin-4-amine]: the IC50 fell in the range of 0.1 to 0.5 µM.
For the molecule `CN(C)CC(=O)N1CCC(c2cn(-c3ccc(Cl)cc3)c3cnccc23)CC1` [Compound 14, 1-{4-[1-(4-Chlorophenyl)-1H-pyrrolo[2,3-c]pyridin-3-yl]piperidin-1-yl}-2-(dimethyl-amino)ethan-1-one], the IC50 lay in the range of 0.1 to 0.5 µM.
Next, `Fc1ccc(-n2nc(N3CCOCC3)c3ccncc32)cc1` [Compound 55, 4-[1-(4-Fluorophenyl)-1H-pyrazolo[3,4-c]pyridin-3-yl]morpholine]: 0.1 to 0.5 µM; `c1ccc(-n2nc(C3CCOCC3)c3ccncc32)cc1` [Compound 40, 3-(Oxan-4-yl)-1-phenyl-1H-pyrazolo[3,4-c]pyridine]: 0.5 to 2.5 µM; `OCc1cn(-c2ccc(Cl)cc2)c2cnccc12` [Compound 23, [1-(4-Chlorophenyl)-1H-pyrrolo[2,3-c]pyridin-3-yl]methanol]: 0.5 to 2.5 µM.
For `CC(C)(C)OC(=O)NC1CCC(c2cn(-c3ccc(Cl)cc3)c3cnccc23)CC1` (centres unmarked) [Compound 11, tert-Butyl N-{4-[1-(4-chlorophenyl)-1H-pyrrolo[2,3-c]pyridin-3-yl]cyclohexyl}-carbamate], the IC50 was in the range of 0.1 to 0.5 µM.
